According to PMC9402538, “Rational design of a sensitivity-enhanced tracer for discovering efficient APC–Asef inhibitors” (Nature Communications, 2022):
Several values for one entry are separate records, joined by “and”; a condition that tells them apart may be missing. Equal values may be shown once. Entries after “also recorded” stand apart in the source; their conditions may differ. Read-outs that look alike come from different tables or passages of the source. Where a SMILES comes first, the peptide text is derived from it. The star is where a group is joined. Benzoyl(4-OMe) = COc1ccc(C(=O)*)cc1

Columns and labels:
[1] = biological target: T1, APC (303–739) (Homo sapiens, UniProt P25054); experiment: FP competitive assay using tracer 7; format: binding; conditions: for IC50: Table 3 source data
T1 sequence (P25054 303-739): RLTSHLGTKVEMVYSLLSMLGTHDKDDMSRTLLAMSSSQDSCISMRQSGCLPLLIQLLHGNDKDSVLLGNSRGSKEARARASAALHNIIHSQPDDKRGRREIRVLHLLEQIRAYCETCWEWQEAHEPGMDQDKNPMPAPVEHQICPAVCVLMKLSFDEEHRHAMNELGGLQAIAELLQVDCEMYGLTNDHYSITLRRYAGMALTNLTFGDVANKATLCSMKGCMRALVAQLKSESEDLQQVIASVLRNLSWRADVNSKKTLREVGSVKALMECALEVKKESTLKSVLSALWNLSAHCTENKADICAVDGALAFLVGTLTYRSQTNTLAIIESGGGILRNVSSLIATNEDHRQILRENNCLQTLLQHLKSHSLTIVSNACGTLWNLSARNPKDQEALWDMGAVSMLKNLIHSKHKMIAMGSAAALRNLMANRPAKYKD
Summary of the method: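 Fluorescence polarization competition: APC (303–739) in 50 mM HEPES pH 7.5, 300 mM NaCl, 1 mM EDTA, 1 mM DTT, preincubated 1 h at room temperature with serially diluted peptides. FITC tracer 7 then added (400 nM stock) and FP read after 1.5 h at room temperature; IC50 by nonlinear regression, triplicates.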

[2] = test system: SW480 cells; experiment: Transwell migration assay, SW480; format: cell-based
Method: Cells were serum-starved for 8 h and then digested and resuspended in serum-free medium. […] The lower chambers were filled with 600 μL of complete medium. […] After 48 h, the Transwell inserts were washed twice with 1× PBS. The cells in the upper chambers of the Transwell inserts were gently removed using cotton-tipped applicators. The cells on the lower surface of the membrane were fixed with methanol and then stained with crystal violet for 10 min. The Transwell inserts were washed with distilled water to remove the excess crystal violet and then dried. The stained cells from different areas were imaged using light microscopy and counted using ImageJ (NIH).

## COc1ccc(C(=O)N[C@@H](C)C(=O)NCC(=O)N[C@@H](CCC(=O)O)C(=O)N[C@@H](CO)C(=O)N[C@@H](CC(C)C)C(=O)N[C@@H](Cc2ccc(O)cc2)C(=O)N[C@@H](CCC(=O)O)C(N)=O)cc1 [MAI-516] ({Benzoyl(4-OMe)}-AGESLYE-NH2)
[1]; Conc. 0.0002 μM, individual repeats, Fig3b, read-out: %inhibition
  inhibition at 0.0002 µM: 0.5%
[1]; Conc. 0.0005 μM, individual repeats, Fig3b, read-out: %inhibition
  inhibition at 0.0005 µM: -0.4%
[1]; Conc. 0.001 μM, individual repeats, Fig3b, read-out: %inhibition
  inhibition at 0.001 µM: 0.3%
[1]; Conc. 0.002 μM, individual repeats, Fig3b, read-out: %inhibition
  inhibition at 0.002 µM: 0.4%
[1]; Conc. 0.0024 μM, individual repeats, Fig3b, read-out: %inhibition
  inhibition at 0.0024 µM: 2.8%
[1]; Conc. 0.0039 μM, individual repeats, Fig3b, read-out: %inhibition
  inhibition at 0.0039 µM: 3.1%
[1]; Conc. 0.0049 μM, individual repeats, Fig3b, read-out: %inhibition
  inhibition at 0.0049 µM: 6.1%
[1]; Conc. 0.006 μM, individual repeats, Fig3b, read-out: %inhibition
  inhibition at 0.006 µM: 3.8%
[1]; Conc. 0.0078 μM, individual repeats, Fig3b, read-out: %inhibition
  inhibition at 0.0078 µM: 6.6%
[1]; Conc. 0.0098 μM, individual repeats, Fig3b, read-out: %inhibition
  inhibition at 0.0098 µM: 13.7%
[1]; Conc. 0.012 μM, individual repeats, Fig3b, read-out: %inhibition
  inhibition at 0.012 µM: 8.8%
[1]; Conc. 0.0156 μM, individual repeats, Fig3b, read-out: %inhibition
  inhibition at 0.0156 µM: 19.4%
[1]; Conc. 0.0195 μM, individual repeats, Fig3b, read-out: %inhibition
  inhibition at 0.0195 µM: 28.4%
[1]; Conc. 0.024 μM, individual repeats, Fig3b, read-out: %inhibition
  inhibition at 0.024 µM: 22.1%
[1]; Conc. 0.0313 μM, individual repeats, Fig3b, read-out: %inhibition
  inhibition at 0.0313 µM: 44%
[1]; Conc. 0.0391 μM, individual repeats, Fig3b, read-out: %inhibition
  inhibition at 0.0391 µM: 48.7%
[1]; Conc. 0.049 μM, individual repeats, Fig3b, read-out: %inhibition
  inhibition at 0.049 µM: 44.6%
[1]; Conc. 0.0625 μM, individual repeats, Fig3b, read-out: %inhibition
  inhibition at 0.0625 µM: 65.8%
[1]; Conc. 0.0781 μM, individual repeats, Fig3b, read-out: %inhibition
  inhibition at 0.0781 µM: 67.8%
[1]; Conc. 0.098 μM, individual repeats, Fig3b, read-out: %inhibition
  inhibition at 0.098 µM: 67.3%
[1]; Conc. 0.125 μM, individual repeats, Fig3b, read-out: %inhibition
  inhibition at 0.125 µM: 80.6%
[1]; Conc. 0.1563 μM, individual repeats, Fig3b, read-out: %inhibition
  inhibition at 0.1563 µM: 82%
[1]; Conc. 0.195 μM, individual repeats, Fig3b, read-out: %inhibition
  inhibition at 0.195 µM: 81.2%
[1]; Conc. 0.25 μM, individual repeats, Fig3b, read-out: %inhibition
  inhibition at 0.25 µM: 89.6%
[1]; Conc. 0.3125 μM, individual repeats, Fig3b, read-out: %inhibition
  inhibition at 0.3125 µM: 90.7%
[1]; Conc. 0.391 μM, individual repeats, Fig3b, read-out: %inhibition
  inhibition at 0.391 µM: 89.5%
[1]; Conc. 0.5 μM, individual repeats, Fig3b, read-out: %inhibition
  inhibition at 0.5 µM: 95.1%
[1]; Conc. 0.625 μM, individual repeats, Fig3b, read-out: %inhibition
  inhibition at 0.625 µM: 96%
[1]; Conc. 0.781 μM, individual repeats, Fig3b, read-out: %inhibition
  inhibition at 0.781 µM: 94.6%
[1]; Conc. 1 μM, individual repeats, Fig3b, read-out: %inhibition
  inhibition at 1 µM: 98.2%
[1]; Conc. 1.25 μM, individual repeats, Fig3b, read-out: %inhibition
  inhibition at 1.25 µM: 98.2%
[1]; Conc. 1.563 μM, individual repeats, Fig3b, read-out: %inhibition
  inhibition at 1.563 µM: 96.2%
[1]; Conc. 2 μM, individual repeats, Fig3b, read-out: %inhibition
  inhibition at 2 µM: 99.4%
[1]; Conc. 2.5 μM, individual repeats, Fig3b, read-out: %inhibition
  inhibition at 2.5 µM: 99.2%
[1]; Conc. 3.125 μM, individual repeats, Fig3b, read-out: %inhibition
  inhibition at 3.125 µM: 98.2%
[1]; Conc. 5 μM, individual repeats, Fig3b, read-out: %inhibition
  inhibition at 5 µM: 100%
[1]; Conc. 6.25 μM, individual repeats, Fig3b, read-out: %inhibition
  inhibition at 6.25 µM: 98.1%
[1]; Conc. 10 μM, individual repeats, Fig3b, read-out: %inhibition
  inhibition at 10 µM: 101%
[1]; Conc. 12.5 μM, individual repeats, Fig3b, read-out: %inhibition
  inhibition at 12.5 µM: 98.5%
[1]; Conc. 20 μM, individual repeats, Fig3b, read-out: %inhibition
  inhibition at 20 µM: 100%
[1]; Conc. 25 μM, individual repeats, Fig3b, read-out: %inhibition
  inhibition at 25 µM: 99.7%
[1]; Conc. 50 μM, individual repeats, Fig3b, read-out: %inhibition
  inhibition at 50 µM: 99%
[1]; Repeat 1, Conc. 0.0024 μM
  mean (FP signal, FigS5): 278.3
[1]; Repeat 1, Conc. 0.0049 μM
  mean (FP signal, FigS5): 270.3
[1]; Repeat 1, Conc. 0.0098 μM
  mean (FP signal, FigS5): 252
[1]; Repeat 1, Conc. 0.0195 μM
  mean (FP signal, FigS5): 216.7
[1]; Repeat 1, Conc. 0.0391 μM
  mean (FP signal, FigS5): 168
[1]; Repeat 1, Conc. 0.0781 μM
  mean (FP signal, FigS5): 122
[1]; Repeat 1, Conc. 0.1563 μM
  mean (FP signal, FigS5): 88
[1]; Repeat 1, Conc. 0.3125 μM
  mean (FP signal, FigS5): 67
[1]; Repeat 1, Conc. 0.625 μM
  mean (FP signal, FigS5): 54.3
[1]; Repeat 1, Conc. 1.25 μM
  mean (FP signal, FigS5): 49
[1]; Repeat 1, Conc. 2.5 μM
  mean (FP signal, FigS5): 46.7
[1]; Repeat 1, Conc. 5 μM
  mean (FP signal, FigS5): 44.3
[1]; Repeat 1, Conc. 10 μM
  mean (FP signal, FigS5): 42.7
[1]; Repeat 1, Conc. 20 μM
  mean (FP signal, FigS5): 44.3
[1]; Repeat 1, read-out: IC50(μM) Repeat 1
  IC50: 0.0453 µM
[1]; Repeat 2, Conc. 0.0002 μM
  mean (FP signal, FigS5): 302.3
[1]; Repeat 2, Conc. 0.0005 μM
  mean (FP signal, FigS5): 304.7
[1]; Repeat 2, Conc. 0.001 μM
  mean (FP signal, FigS5): 303
[1]; Repeat 2, Conc. 0.002 μM
  mean (FP signal, FigS5): 302.7
[1]; Repeat 2, Conc. 0.0039 μM
  mean (FP signal, FigS5): 295.7
[1]; Repeat 2, Conc. 0.0078 μM
  mean (FP signal, FigS5): 286.7
[1]; Repeat 2, Conc. 0.0156 μM
  mean (FP signal, FigS5): 253.7
[1]; Repeat 2, Conc. 0.0313 μM
  mean (FP signal, FigS5): 190.3
[1]; Repeat 2, Conc. 0.0625 μM
  mean (FP signal, FigS5): 134.3
[1]; Repeat 2, Conc. 0.125 μM
  mean (FP signal, FigS5): 96.3
[1]; Repeat 2, Conc. 0.25 μM
  mean (FP signal, FigS5): 73
[1]; Repeat 2, Conc. 0.5 μM
  mean (FP signal, FigS5): 59
[1]; Repeat 2, Conc. 1 μM
  mean (FP signal, FigS5): 51
[1]; Repeat 2, Conc. 2 μM
  mean (FP signal, FigS5): 48
[1]; Repeat 2, read-out: IC50(μM) Repeat 2
  IC50: 0.0412 µM
[1]; Repeat 3, Conc. 0.006 μM
  mean (FP signal, FigS5): 307.3
[1]; Repeat 3, Conc. 0.012 μM
  mean (FP signal, FigS5): 294
[1]; Repeat 3, Conc. 0.024 μM
  mean (FP signal, FigS5): 259
[1]; Repeat 3, Conc. 0.049 μM
  mean (FP signal, FigS5): 199.7
[1]; Repeat 3, Conc. 0.098 μM
  mean (FP signal, FigS5): 140
[1]; Repeat 3, Conc. 0.195 μM
  mean (FP signal, FigS5): 103.3
[1]; Repeat 3, Conc. 0.391 μM
  mean (FP signal, FigS5): 81.3
[1]; Repeat 3, Conc. 0.781 μM
  mean (FP signal, FigS5): 68
[1]; Repeat 3, Conc. 1.563 μM
  mean (FP signal, FigS5): 63.7
[1]; Repeat 3, Conc. 3.125 μM
  mean (FP signal, FigS5): 58.3
[1]; Repeat 3, Conc. 6.25 μM
  mean (FP signal, FigS5): 58.7
[1]; Repeat 3, Conc. 12.5 μM
  mean (FP signal, FigS5): 57.7
[1]; Repeat 3, Conc. 25 μM
  mean (FP signal, FigS5): 54.3
[1]; Repeat 3, Conc. 50 μM
  mean (FP signal, FigS5): 56.3
[1]; Repeat 3, read-out: IC50(μM) Repeat 3
  IC50: 0.0379 µM
[1]; mean of 3 repeats, read-out: IC50(μM) mean
  IC50: 0.0415 µM
[2]; FigS10e, relative to DMSO
  Relative migration ability (single replicates): 1.11 and 1.06 and 0.96
  Relative migration ability, mean: 1.04
[2]; SW480, MAI-516 50 μM, 48 h
  cell migration (transwell): dose not inhibit the migration; also recorded: no apparent impact
